The assay concerns the target T1, GPIIb/IIIa (Homo sapiens, UniProt P05106+P08514).
T1 construct: Purification of GPIIb/IIIa from HEL cells; endogenous in cells; host or cells: HEL cells (HEL 92.1.7, ATCC TIB180); endogenous complex solubilized with Triton X-100 and purified in house
In words: Inhibitory activity against binding of GPIIb/IIIa and fibrinogen. The conditions noted are these: read-out: GPIIb/IIIa Fibrinogen Binding Inhibitory Activity. The procedure, abridged:
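Plates were coated with GPIIb/IIIa purified from HEL cells (1 μg/ml) and blocked with BSA. Test sample and biotinylated human fibrinogen (added as 100 nM solution) reacted 3 h at 30° C or overnight at room temperature in Tris buffer, 2 mM CaCl2, pH 7.4. Bound fibrinogen was detected with anti-biotin alkaline phosphatase and p-nitrophenyl phosphate.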

Where two headings read alike, the source gives them in different places.

T1 sequence (P08514 32-887 limits assumed): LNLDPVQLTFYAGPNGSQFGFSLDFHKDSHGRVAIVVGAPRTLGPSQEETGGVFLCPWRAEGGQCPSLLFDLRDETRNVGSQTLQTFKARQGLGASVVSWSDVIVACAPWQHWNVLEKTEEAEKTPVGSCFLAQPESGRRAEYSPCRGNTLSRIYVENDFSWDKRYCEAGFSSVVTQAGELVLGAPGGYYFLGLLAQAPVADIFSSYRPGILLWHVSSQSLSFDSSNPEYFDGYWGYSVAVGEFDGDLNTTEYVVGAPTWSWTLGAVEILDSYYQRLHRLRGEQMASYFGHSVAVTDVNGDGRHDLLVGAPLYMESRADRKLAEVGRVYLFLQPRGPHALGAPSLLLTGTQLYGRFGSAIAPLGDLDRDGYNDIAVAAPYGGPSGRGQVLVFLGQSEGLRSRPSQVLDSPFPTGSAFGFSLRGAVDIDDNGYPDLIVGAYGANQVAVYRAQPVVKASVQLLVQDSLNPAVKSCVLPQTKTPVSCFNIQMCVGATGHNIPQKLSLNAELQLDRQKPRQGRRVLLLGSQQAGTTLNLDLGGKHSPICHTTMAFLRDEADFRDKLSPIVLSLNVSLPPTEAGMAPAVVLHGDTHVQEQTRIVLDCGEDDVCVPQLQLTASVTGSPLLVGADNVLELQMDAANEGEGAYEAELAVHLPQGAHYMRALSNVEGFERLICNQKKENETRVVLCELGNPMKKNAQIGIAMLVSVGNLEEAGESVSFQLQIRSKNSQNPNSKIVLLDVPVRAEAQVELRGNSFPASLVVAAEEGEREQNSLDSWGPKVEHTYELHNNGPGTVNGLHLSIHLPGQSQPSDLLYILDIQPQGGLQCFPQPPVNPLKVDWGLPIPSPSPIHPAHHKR
T1 sequence (P08514 891-1039 limits assumed): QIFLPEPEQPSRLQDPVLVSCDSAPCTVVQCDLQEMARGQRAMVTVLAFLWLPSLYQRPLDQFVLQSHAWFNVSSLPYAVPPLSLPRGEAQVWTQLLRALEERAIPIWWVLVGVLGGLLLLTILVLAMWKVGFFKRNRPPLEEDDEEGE
T1 sequence (P05106 27-788): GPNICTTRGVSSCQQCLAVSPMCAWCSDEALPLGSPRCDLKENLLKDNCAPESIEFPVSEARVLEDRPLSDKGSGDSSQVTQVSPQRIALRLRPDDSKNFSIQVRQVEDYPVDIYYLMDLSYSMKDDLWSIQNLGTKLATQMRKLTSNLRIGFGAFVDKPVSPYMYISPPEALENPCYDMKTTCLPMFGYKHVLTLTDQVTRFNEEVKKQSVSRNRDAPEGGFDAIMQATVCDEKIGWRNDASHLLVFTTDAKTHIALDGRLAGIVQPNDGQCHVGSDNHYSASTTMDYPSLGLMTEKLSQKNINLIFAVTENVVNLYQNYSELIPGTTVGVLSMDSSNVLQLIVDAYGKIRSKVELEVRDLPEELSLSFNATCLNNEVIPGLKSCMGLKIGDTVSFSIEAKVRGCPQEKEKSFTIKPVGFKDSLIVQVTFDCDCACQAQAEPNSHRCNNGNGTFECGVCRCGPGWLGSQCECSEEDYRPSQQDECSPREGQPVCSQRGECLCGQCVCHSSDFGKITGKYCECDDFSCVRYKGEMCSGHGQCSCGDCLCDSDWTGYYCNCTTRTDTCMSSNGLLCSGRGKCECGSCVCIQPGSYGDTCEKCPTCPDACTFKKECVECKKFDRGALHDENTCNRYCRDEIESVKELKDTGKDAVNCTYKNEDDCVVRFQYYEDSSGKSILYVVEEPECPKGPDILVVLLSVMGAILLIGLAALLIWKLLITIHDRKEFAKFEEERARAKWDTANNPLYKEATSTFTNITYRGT

As to `CC1COc2c(N3CCN(C)CC3)c(F)cc3c(=O)c(C(=O)O)cn1c23` (centres unmarked) [Ofloxacin, reference compound], under “Table 1, 1 × 10^-5 M”, the inhibition at 10 µM was 42.4%. For the same compound, the inhibition at 1 µM (Table 1, 1 × 10^-6 M) is 4%.
With `CCNCC1CCN(c2c(F)cc3c(=O)c(C(=O)O)cn(C4CC4)c3c2F)C1` (centres unmarked) [Compound 23], under “Table 2, 10^-5 M”, the inhibition at 10 µM came to 72.3%. Besides, the inhibition at 1 µM (Table 2, 10^-6 M) turned out to be 36.2%.
Take `CN1CCN(c2c(F)cc3c(=O)c(C(=O)O)cn4c3c2N(C)CC4)CC1` [Compound 53, 9-Fluoro-1-methyl-10-(4-methylpiperazin-1-yl) 7-oxo-2,3-dihydro-1H,7H-pyrido[1,2,3-de]quinoxaline-6-carboxylic acid]: the inhibition at 10 µM (Table 2, 10^-5 M) came out at 89.5%. In addition, the inhibition at 1 µM (Table 2, 10^-6 M) is 47.6%.
`CN1CCN(C(=O)OC2CCN(c3c(F)cc4c(=O)c(C(=O)O)cn(C5CC5)c4c3F)C2)CC1` (centres unmarked) [Compound 26]: the inhibition at 10 µM (Table 2, 10^-5 M) turned out to be 94.1%. Moreover, the inhibition at 1 µM (Table 2, 10^-6 M) stood at 71.4%.
As for `O=C(O)c1cn(Cc2ccccc2)c2c(F)c(N3CCNCC3)c(F)cc2c1=O` [Compound 55, 1-Benzyl-6,8-difluoro-7-(1-piperazinyl)-1,4-dihydro-4-oxoquinoline-3-carboxylic acid], the inhibition at 10 µM (Table 2, 10^-5 M) worked out at 100%. In addition, the inhibition at 1 µM (Table 2, 10^-6 M) worked out at 93.8%.
As for `NC1CCCN(c2c(F)cc3c(=O)c(C(=O)O)cn(C4CC4)c3c2F)C1` (centres unmarked) [Compound 38], the inhibition at 10 µM (Table 2, 10^-5 M) worked out at 50.8%. Moreover, the inhibition at 1 µM (Table 2, 10^-6 M) was 31.9%.
In the same order, the values of `O=C(O)c1cn(C2CC2)c2cc(N3CCN4CCC[C@H]4C3)c(F)cc2c1=O` [Compound 32] are 71.2% and 39.5%.
Regarding `CCNCc1cn2c(n1)CN(c1c(F)cc3c(=O)c(C(=O)O)cn(C4CC4)c3c1F)CC2` [Compound 27], the inhibition at 10 µM (Table 2, 10^-5 M) amounted to 78.4%. Moreover, for the setting “Table 2, 10^-6 M”, the inhibition at 1 µM turned out to be 42.6%.
As for `NCC1CN(c2c(F)cc3c(=O)c(C(=O)O)cn(C4CC4)c3c2F)Cc2ccccc21` (centres unmarked) [Compound 37], for the setting “Table 2, 10^-5 M”, the inhibition at 10 µM came to 60.1%. Moreover, the inhibition at 1 µM (Table 2, 10^-6 M) is 32.5%.
Take `O=C(O)c1cn(C2CC2)c2c(F)c(N3CCc4ccccc4C3)c(F)cc2c1=O` [Compound 34]: for the setting “Table 2, 10^-5 M”, the inhibition at 10 µM is 77%. In addition, the inhibition at 1 µM (Table 2, 10^-6 M) stood at 49.4%.

(Values after patent US5519024A, “Quinolonecarboxylic acid derivatives and their use” (Takeda Chemical Industries, Ltd., priority 1993, dated 1996).)
